Patent publication US12611387B2, “Compound and composition for inducing neuroprotection” (REST THERAPEUTICS, priority 2020, dated 2026)

Columns and labels:
Format in all cases: in vivo
[1] = test system: Aβ25-35 oligomer-intoxicated mice; test: Morris water maze test, neuroprotection design; conditions: 0.3 mg/Kg, probe test
Experimental: The neuroprotective effect of the compounds, i.e. the ability thereof to protect cells from Aβ25-35 oligomer neurotoxicity and neurodegeneration, is also tested (FIG. 10). The test compounds are thus administered on the same day as the injection of the Aβ25-35 oligomers and are continued to be administered on a daily basis up to day 7 after the injection of the oligomers, at which time the mice are subjected to the YMT, PAT, MWT or ORT. The brain's anatomy is analysed and neuronal cells are counted by immunohistochemistry on mice sacrificed at D13. The biochemical analyses for the quantification of markers of oxidative stress and apoptosis were carried out at D16 on a group of mice that had been subjected to the WMT (FIG. 10).
This test is used to assess long-term spatial reference memory. […] The animals' swimming behaviour was recorded (Videotrack® software, Viewpoint), and the trajectories, latencies and distances covered were measured. […] Median latency (time taken to find the platform) was calculated for each training day and expressed for the group as the mean latency±standard deviation. […] Each mouse was left in the water for 60 seconds and its swimming behaviour was recorded. The time spent in the north-eastern quadrant, which originally contained the platform (T), was measured and compared to the average time spent in the other quadrants (o).

[2] = test system: non-intoxicated mice; test: Y-maze, amnestic effect in non-intoxicated mice; conditions: 10 mg/Kg i.p.
Experimental: The spontaneous alternation test was used to assess spatial working memory (very short-term memory) in rodents. The maze was made of grey opaque polyvinylchloride (PVC). Each arm was 40 cm long, 13 cm high, 3 cm wide at the bottom, and 10 cm wide at the top. The arms converged towards one another at an equal angle between the different arms. In brief, each mouse was placed at the end of one arm and allowed to move freely during an 8 min session. The mouse's entries into each arm, including the arm at whose end it was placed, are recorded. An alternation is defined as the animal's successive entry into three different arms. The number of maximum alternations is thus the total number of entries into each arm minus 2 and the percentage of alternation was calculated according to the formula: % Alt=number of actual alternations/maximum number of alterations×100
The parameters measured included the percentage of alternations (memory index) and the total number of entries into the arms of the maze (exploration index, Maurice et al., 1994, 1996; Meunier et al., 2006, 2013; Villard et al., 2009, 2011). Data from the animals showing extreme behaviour (percentage of alternation <25% or >90%, or a number of entries less than 10) were excluded from the calculations. The attrition rate was routinely 5%. Under normal conditions, a mouse will spontaneously alternate exploring each of the arms. A mouse with impaired memory and/or orientation abilities will have a lower percentage of alternations.
In this experiment, memantine and FENM were administered at a dose of 10 mg/Kg i.p. and the performance of the mice was tested using the passive avoidance test and the Y-maze with non-intoxicated mice.

[3] = test system: Aβ25-35 oligomer-intoxicated mice; test: Y-maze test, symptomatic treatment; conditions: doses 0.1; 0.3; 1.0; 3 and 10 mg/Kg i.p., symptomatic design
Experimental: The test compounds were tested for their ability to decrease the cognitive symptoms of Aβ25-35 oligomer-induced neurodegeneration, i.e. their ability to provide symptomatic anti-amnestic treatment (FIGS. 1A and 1B). In brief, to test the symptomatic effect of the test compounds, they were administered 8 days after the icy injection of the Aβ25-35 oligomers, 30 minutes before the YMT and PAT memory tests were conducted or 30 minutes before the test, but after the training session, in the case of the MWT or ORT (FIG. 1A). […]
The spontaneous alternation test was used to assess spatial working memory (very short-term memory) in rodents. […] The mouse's entries into each arm, including the arm at whose end it was placed, are recorded. […] The number of maximum alternations is thus the total number of entries into each arm minus 2 and the percentage of alternation was calculated according to the formula: % Alt=number of actual alternations/maximum number of alterations×100
The parameters measured included the percentage of alternations (memory index) and the total number of entries into the arms of the maze (exploration index, Maurice et al., 1994, 1996; Meunier et al., 2006, 2013; Villard et al., 2009, 2011). […]

[4] = test system: Aβ25-35 oligomer-intoxicated mice; test: Passive avoidance test, symptomatic treatment; conditions: symptomatic design; for improvement in cognitive impairment in the passive avoidance test, effective doses: doses 0.1, 0.3, 1.0, 3 and 10 mg/Kg i.p.; for aggravating effect on amnestic symptoms in the passive avoidance test: intoxicated mice, memantine at 10 mg/Kg
Experimental: The test compounds were tested for their ability to decrease the cognitive symptoms of Aβ25-35 oligomer-induced neurodegeneration, i.e. their ability to provide symptomatic anti-amnestic treatment (FIGS. 1A and 1B). In brief, to test the symptomatic effect of the test compounds, they were administered 8 days after the icy injection of the Aβ25-35 oligomers, 30 minutes before the YMT and PAT memory tests were conducted or 30 minutes before the test, but after the training session, in the case of the MWT or ORT (FIG. 1A). The Hamlet Test® (FIG. 1B) involves a 2-week training session (4 hr/day) followed by a test (max. 10 min) under water deprivation conditions and under normal conditions; the Aβ25-35 peptide is injected after this first test. After one week, the compounds are administered and a second test under water deprivation conditions and under normal conditions is performed 30 min after injection. This test measures spatial-temporal disorientation, a major warning sign in Alzheimer's disease (Crouzier et al., 2018).
This test measures non-spatial (contextual) long-term memory. The apparatus used for this test was a box with two compartments (15×20×15 cm high), one illuminated with white PVC walls and the other in the dark with black PVC walls and a grid floor. A guillotine door separated the compartments. A 60 W lamp was positioned 40 cm above the box and illuminated the white compartment. Electric shocks (0.3 mA for 3 s) could be delivered to the grid floor using a generator (Lafayette Instruments, Lafayette, USA). The test comprised a training session and a test session. The guillotine door was closed during the training session. Each mouse was placed in the white compartment. After 5 seconds, the door was raised. When the mouse entered the darkened compartment and placed all four feet in contact with the grid floor, the door was closed and the electric shocks were delivered for 3 seconds. The time taken by the mouse to re-enter the darkened compartment (STL-Tg) and the number of vocalizations were recorded. The test session was conducted 24 hours after the training session. Each mouse was placed back into the illuminated white compartment. After 5 s the door was raised, the step-through latency (STL-R), i.e. the time it took the mouse to enter the darkened compartment, was measured. The maximum duration was 300 s. Mice with a STL-Tg>30 s or a STL-Tg and a STL-R<10 s were not considered for the test. The attrition rate was routinely 5% (Meunier et al., 2006, 2013; Villard et al., 2009, 2011). A mouse with impaired memory abilities will have a lower STL-R than a mouse with normal abilities. […]

Structure (SMILES) | time spent in the training quadrant (learning and long-term spatial memory) [1] | Alternation (%) [2] [%] | Number of entries [2] | restoring Alt % in the Y-maze test, effective doses [3] | improvement in cognitive impairment in the passive avoidance test, effective doses [4] | aggravating effect on amnestic symptoms in the passive avoidance test [4]
NC12CC3CC(C1)CC(CCF)(C3)C2 [FENM, 3-(2-fluoroethyl)adamantan-1-amine] | maintained their learning and memory abilities | 63.7 ± 4.2 | 32.7 ± 3.4 | effective at all doses tested from 0.1 mg/Kg | effective at 0.1; 0.3 and 1 mg/Kg | does not exert an aggravating effect on amnestic symptoms
CC12CC3CC(C)(C1)CC(N)(C3)C2 [memantine, 3,5-Dimethyl-1-adamantanamine, reference compound] | did not prevent the impairment of learning and memory functions | 48.8 ± 3.0 | 28.2 ± 2.9 | only effective at 0.3 mg/Kg | significant improvement in cognitive impairment by memantine was observed at the 0.3 mg/Kg memantine dose only | worsens the cognitive symptoms of intoxicated mice when injected at 10 mg/Kg
